Results reported in patent US5284837A, “Derivatives of purine, process for their preparation and a pharmaceutical preparation” (Medivir AB, priority 1988, dated 1994).
Structures can show the parent of a compound that is named as a salt. Where two headings read alike, the source gives them in different places. One block for each compound: values may come before it.

Columns and labels:
[1] = test system: HIV (HTLV-IIIB) in H9 cells; assay: Effect of compounds on HIV multiplication in H9 cells (Test I); type: cell-based, human immunodeficiency virus (HTLV-IIIB); conditions: 6-7 days, read-out: Concentration (μM) for 50% inhibition (IC50) of human immuno deficiency virus multiplication in cell culture
Method: Materials and Methods: HIV Infection of H9 Cells H9 cells, 10^5 cells per well on a 24 well plate, suspended in 2 ml RPMI-medium containing 10% fetal calf serum, 100 μg/ml pencillin, 10 μg/ml streptomycin sulfate and 2 μg/ml polybrene are exposed to HIV (HTLV-IIIB) and different concentrations of the test compounds. The plates are incubated at 37° C. in 5% CO2 for 6-7 days. The contents in each well is then homogenized with a pipette and transferred to a centrifuge tube. After centrifugation for 10 min at 1500 rpm the supernatant is removed and the cell pellet is analyzed by fixing in methanol on glass plates. Human HIV positive serum diluted 1:80 or 1:160 is added and incubated for 30 min at 37° C. The pate is then washed with phosphate-buffered saline (PBS) containing Ca2+ and Mg2+. Sheep antihuman conjugate (FITC) is added and after a new incubation the plate is again washed with PBS. Contrast staining is done with Evans blue and after drying the frequency of HIV antigen containing cells is determined in a microscope.

[2] = Cellular toxicity, inhibition of H9 cell multiplication (Test II); type: cell-based; conditions: human, H9 cells
Method: (§1) Test II--Cellular Toxicity
H9 cells, 2×10^7 cells per plate, are incubate in RPMI-1640 medium containing 10% fetal calf serum, 70 mg/l penicillin, 100 mg/l streptomycin and 10 mM hepes, in absence or presence of test compounds. The number of cells per plate is determined after 48 h. Cells incubated in the absence of test compounds then underwent two cell division cycles.
(§2) F5000 cells, which are human embryo cells, 1×10^5 cells per plate, are incubated in Eagle's minimal essential medium, supplemented with Earle's salts, non-essential amino acids, 10% fetal calf serum, 10 mM hepes, 70 mg/l penicillin and 100 mg/l streptomycin, in absence or presence of test compounds. The number of cells per plate is determined after 48 h. Cells incubated in the absence of test compounds underwent one cell division cycle.

[3] = Cellular toxicity, inhibition of F5000 cell multiplication (Test II); type: cell-based; conditions: human, f5000 cells
Method: as §1, §2

[4] = Oral bioavailability in monkey (Test III); type: in vivo, cynomologous monkeys
Method: (§3) TEST III--ORAL BIOAVAILABILITY
(§4) Oral bioavailability was determined by dosing the animals (cynomologous monkeys and rats) intravenously and orally on separate occasions with the compounds. Blood samples were taken after appropriate intervals for determination of drug level in plasma. Appropriate pharmacokinetic calculations were then carried out based on plasma concentration against time relationship.

[5] = Oral bioavailability in rat (Test III); type: in vivo; conditions: for plasma concentration of VSA 671 after VSA 671 has been given as 6-deoxy prodrug or ester: in words
Method: as §3, §4

[6] = Human immunodeficiency virus 1, IIIB, H9, H9 cells
[7] = plasma AUC relative to AUC after intravenously given VSA 671, read-out: Oral bioavailability F of compound determined as VSA 671

- IC50 [1, 6]: 1 to 10 µM
- bioavailability [4, 7]: 10%
- bioavailability [5, 7]: 11%
SMILES: Nc1nc2c(ncn2CC(CO)CCO)c(=O)[nH]1 (racemic) [VSA 671, 9-[4-hydroxy-2-(hydroxymethyl)butyl]guanine]
- inhibition at 48 h, 500 µM ([2]; 500 μM): 55%
- inhibition at 48 h, 1000 µM ([3]; 1000 μM): 55%

- IC50 ([1]; H9 cells): 1 to 5 µM
SMILES: Nc1nc2c(ncn2CC(CO)CCO)c(=O)[nH]1 (single isomer, unassigned; (+)) [VSB 648, (+)-9-[4-hydroxy-2(hydroxymethyl)butyl]-guanine]

- IC50 ([1]; H9 cells): 0.1 to 7 µM
SMILES: Nc1nc2c(ncn2CC(CO)CCO)c(=O)[nH]1 (single isomer, unassigned; (-)) [VSB 647, (-)-9-(4-Hydroxy-2-hydroxymethylbutyl)guanine]
- inhibition at 48 h, 100 µM ([2]; 100 μM): 5%

- plasma concentration of VSA 671 after VSA 671 has been given as ester of 6-deoxy prodrug ([4]; in words): significantly increased
SMILES: CC(=O)OCCC(COC(C)=O)Cn1cnc2cnc(N)nc21 (stereo not drawn) [VSC 610, 2-(2-Aminopurin-9-yl)methylbutane-1,4-diol diacetate]

Further lines, the compound ahead of its results:

SMILES: Nc1ncc2ncn(CC(CO)CCO)c2n1 (stereo not drawn) [VSB 212, 2-(2-Aminopurin-9yl)methyl butan-1,4-diol]
- plasma concentration of VSA 671 after VSA 671 has been given as 6-deoxy prodrug or ester [5]: significantly increased

SMILES: Nc1ncnc2c1ncn2CC(CO)CCO (stereo not drawn) [VSC 600, 9-(4-Hydroxy-2-hydroxymethylbutyl)adenine]
- IC50 [1, 6]: 10 µM
- inhibition at 48 h, 200 µM ([2]; 200 μM): 25%
- inhibition at 48 h, 500 µM ([3]; 500 μM): 25%

SMILES: CC(=O)OCCC(COC(C)=O)Cn1cnc2c(=O)[nH]c(N)nc21 (stereo not drawn) [VSC 640, 9-[4-acetoxy-2-(acetoxymethyl)butyl]guanine.HCl]
- plasma concentration of VSA 671 after VSA 671 has been given as 6-deoxy prodrug or ester [5]: significantly increased

SMILES: CCC(=O)OCCC(COC(=O)CC)Cn1cnc2c(=O)[nH]c(N)nc21 (stereo not drawn) [VSC 641, 9-[4-propionoxy-2-(propionoxymethyl)butyl]guanine.HCl]
- plasma concentration of VSA 671 after VSA 671 has been given as 6-deoxy prodrug or ester [5]: significantly increased
